Earlier results as cited in US7824714B2, “Chinese herb extract for treating dementia and preparation method thereof” (Development Center for Biotechnology, priority 2008, dated 2010).

How the values were obtained:
brain cells = conditions: animal experiments
[1] = test system: mice having scopolamine dementia and Aβ dementia

OC[C@H]1O[C@@H](Oc2c(O)cc(O)cc2C=Cc2ccc(O)cc2)[C@H](O)[C@@H](O)[C@@H]1O [stilbene glucoside compound, 3,4′,5-trihydroxy-2-stilbenyl beta-D-glucoside]
damage of brain cells caused by β-amyloid protein and hydrogen peroxide (brain cells): capable of preventing
memory capacity [1]: increasing
